Measured values published in patent US12180252B2, “Peptide derived from PEP27 peptide and uses thereof” (priority 2021, dated 2024).
Read-outs that look alike come from different tables or passages of the source. Where a SMILES comes first, the peptide text is derived from it.

Experiments:
B. subtilis KCTC1998 = format: cell-based, Bacillus subtilis; settings: KCTC1998, 18 h
Procedure: (§1) In order to evaluate the antimicrobial activity of the peptides prepared by the method of above 1, a minimal inhibitory concentration (MIC) value as the minimum concentration of a peptide, in which cells are not divided, was measured.
(§2) Specifically, the strains shown in Table 3 below were purchased, cultured in a medium having a constitutional composition suitable for each strain to a mid-log phase, and then diluted to a concentration of 2×10^4 cells/100 μl to prepare the product on a micro-titration plate (Nunc, USA). Then, PEP27, PEP27-1, PEP27-2 or PEP27-5 peptide synthesized in the above 1 was added to each well by serial dilution ½ times, followed by incubation at 37° C. for 18 hours.

L. monocytogens KCTC3710 = format: cell-based, Listeria monocytogenes; settings: KCTC3710, 18 h
Procedure: as §1, §2

E. coli ATCC25922 = format: cell-based, Escherichia coli; settings: ATCC25922, 18 h
Procedure: as §1, §2

E. coli ATCC27325 = format: cell-based, Escherichia coli; settings: ATCC27325, 18 h
Procedure: as §1, §2

E. coli CCARM1229 = format: cell-based, Escherichia coli; settings: E. coli CCARM1229, antibiotics-tolerant; 37° C., 18 hours
Procedure: as §1, §2

E. coli CCARM1238 = format: cell-based, Escherichia coli; settings: E. coli CCARM1238, antibiotics-tolerant; 37° C., 18 hours
Procedure: as §1, §2

P. aeruginosa 4007 = experiment: microbe, parasite or virus in culture; settings: 4007, 18 h
Procedure: as §1, §2
(§3) Specifically, subject strains were prepared by the method of above 2, and were treated with the antibiotics, that is, meropenem, ceftazidime, ceftriaxone or vancomycin, respectively, followed by determining MICs of the antibiotics.

P. aeruginosa 4891 = experiment: microbe, parasite or virus in culture; settings: 4891, 18 h
Procedure: as §1, §2, §3

P. aeruginosa ATCC15692 = experiment: microbe, parasite or virus in culture; settings: ATCC15692, 18 h
Procedure: as §1, §2, §3

P. aeruginosa ATCC27853 = experiment: microbe, parasite or virus in culture; settings: ATCC27853, 18 h
Procedure: as §1, §2, §3

S. aureus ATCC25923 = experiment: microbe, parasite or virus in culture; settings: ATCC25923, 18 h
Procedure: as §1, §2, §3

S. aureus ATCC29213 = experiment: microbe, parasite or virus in culture; settings: ATCC29213, 18 h
Procedure: as §1, §2, §3

S. aureus CCARM3089 = experiment: microbe, parasite or virus in culture; settings: S. aureus CCARM3089, antibiotics-tolerant; 37° C., 18 hours
Procedure: as §1, §2, §3

S. aureus CCARM3090 = experiment: microbe, parasite or virus in culture; settings: S. aureus CCARM3090, antibiotics-tolerant; 37° C., 18 hours
Procedure: as §1, §2, §3

S. aureus CCARM3518 = experiment: microbe, parasite or virus in culture; settings: S. aureus CCARM3518, antibiotics-tolerant; 37° C., 18 hours
Procedure: as §1, §2, §3

S. aureus MW2 = experiment: microbe, parasite or virus in culture; settings: S. aureus MW2, antibiotics-tolerant; 37° C., 18 hours
Procedure: as §1, §2, §3

S. aureus USA300 = experiment: microbe, parasite or virus in culture; settings: S. aureus USA300, antibiotics-tolerant; 37° C., 18 hours
Procedure: as §1, §2, §3

[1] = test system: Sa. typhimurium CCARM8007; format: cell-based, Salmonella typhimurium; settings: Sa. typhimurium CCARM8007, antibiotics-tolerant; 37° C., 18 hours
Procedure: as §1, §2

[2] = test system: Sa. typhimurium CCARM8009; format: cell-based, Salmonella typhimurium; settings: Sa. typhimurium CCARM8009, antibiotics-tolerant; 37° C., 18 hours
Procedure: as §1, §2

Sa. typhimurium KCTC1926 = format: cell-based, Salmonella typhimurium; settings: KCTC1926, 18 h
Procedure: as §1, §2

[3] = test system: red blood cells of a rat (Balb/c); settings: 37° C., 1 hour
Procedure: In order to compare the cytotoxicity of the peptides prepared by the method of above 1, erythrocyte hemolytic activity of each of the synthesized peptides was measured.
Specifically, red blood cells of a rat (Balb/c, 6 weeks old, female) were diluted with PBS (pH 7.0) to a concentration of 8%, and PEP27, PEP27-1, PEP27-2 and PEP27-5 peptides were used for treatment of the cells at concentrations of 3.13, 6.25, 12.5, 25.01 50.0 and 100.0 μM/well, respectively, followed by reaction at 37° C. for 1 hour. Then, an amount of hemoglobin contained in the supernatant obtained by centrifugation at 1,000×g was determined by measuring the absorbance at a wavelength of 414 nm. As a control which is a standard for the degree of cell destruction, the absorbance of the obtained supernatant was measured after treatment using 1% Triton X-100 (Sigma, USA) and reaction at 37° C. for 1 hour. With reference to 100% erythrocytes hemolysis activity, hemolysis of each peptide was calculated from the measured absorbance using Equation 1 below. Erythrocyte destruction ability (%)=(Absorbance A−Absorbance B)/(Absorbance C−Absorbance B)×100 [Equation 1]
(wherein, absorbance A represents the absorbance of a reaction solution treated with each peptide measured at a wavelength of 414 nm; absorbance B represents the absorbance of a reaction solution treated with PBS measured at a wavelength of 414 nm; and absorbance C represents the absorbance of a reaction solution treated with 1% Triton X-100 measured at a wavelength of 414 nm).

MTT cytotoxicity = format: cell-based, human; settings: human; 100 μM, 24 h, MTT, HaCaT and MCF-7 cells; read-out: cell viability
Procedure: Specifically, Thiazolyl blue tetrazolium bromide (MTT, Merck KGaA) was used to determine the cytotoxicity of PEP27 and its analogs against HaCaT (human keratinocyte […], n=4 per condition) and MCF-7 (human breast adenocarcinoma, n=3 per condition) cells. The cells were cultured in Dulbecco's modified Eagle's medium (DMEM) supplemented with 10 heat-inactivated fetal bovine serum (FBS, Gibco, Grand Island, NY, USA) and 1% penicillin-streptomycin (Gibco) at a density of 2×10^4 cells/well (96-well plate). Peptides were then added at various concentrations and incubated for 24 h at 37° C., after which MTT (final concentration, 0.5 mg/mL) was added to each well and incubated for 4 h. The formazan product was solubilized in DMSO, and the absorbance at 570 nm was measured to […] cytotoxicity. Cells treated with 0.1% Triton X-100 were used as the 100% cytotoxic control sample.

[4] = Calcein release from LUVs; settings: peptide-to-lipid (P/L) ratio 0.2; PE/PG and PC/CH/SM liposomes; 100% = 0.1% Triton X-100
Procedure: To examine the mechanism of action of PEP27 and PEP27-2, we evaluated the changes in bacterial cell membrane permeability by monitoring the release of calcein, a fluorescent marker, from calcein entrapped LUVs with different lipid bilayer compositions.
Peptide-induced membrane permeabilization was quantified by monitoring calcein release from LUVs (n=3 per condition). Different calcein-entrapped LUVs [PE/PG (7/3) or PC/CH/SM (1/1/1)] were prepared as described above, except that the dry lipid films were resuspended in 1 mL of PBS (pH 7.2) containing 70 mM calcein. Gel filtration chromatography on a Sephadex G-50 column was performed to separate free calcein from that entrapped in LUVs. Thereafter, the LUVs with entrapped calcein were mixed with peptides at various ratios, and the fluorescence of the released calcein was measured with a SpectraMax M3 Multi-Mode Microplate Reader (Molecular Devices, Sunnyvale, CA, USA) at excitation and emission wavelengths of 480 and 520 nm, respectively.

E. coli = experiment: Flow cytometry, propidium iodide staining; format: cell-based, Escherichia coli
Procedure: In order to confirm whether the peptide prepared by the method of above 1 acts on the bacterial membrane, PEP27-2 peptide having better antimicrobial activity than the parental peptide was analyzed through flow cytometry.
Thereafter, the supernatant was removed using a centrifuge (10,000 rpm) and stained with propidium iodide (PI) at a concentration of 10 μg/ml at 4° C. for 30 minutes. Then, the unbound propidium iodide (PI) was removed using the centrifuge, and 1 ml of physiological saline (PBS) was added to remove agglomeration of the cells. Thereafter, effects of the peptide on the bacterial membrane were determined using a Bechman flow cytometer.

plasmid DNA (pRSETB) = experiment: Peptide-DNA binding by agarose gel electrophoresis; settings: peptide/DNA ratios 0.25:1 to 4:1, 300 ng plasmid DNA
Procedure: Specifically, 300 ng of plasmid DNA (pRSETB) was reacted with the peptide by a relative ratio (reactions were performed at peptide/DNA ratios of DNA alone, 0.25:1, 0.5:1, 1:1, 1.5:1, 2:1, 3:1, 4:1, respectively) at 37° C. for 10 minutes, followed by conducting electrophoresis on a 1% agarose gel, staining the same with ethidium bromide (EtBr) and monitoring through UV.

[5] = Peptide concentration 100 μM, 100% = 1% Triton X-100

CSCC[C@H](N)C(=O)N[C@@H](Cc1c[nH]c2ccccc12)C(=O)N[C@@H](CCCCN)C(=O)N[C@@H](Cc1c[nH]c2ccccc12)C(=O)N[C@@H](Cc1ccccc1)C(=O)N[C@@H](Cc1c[nH]cn1)C(=O)N[C@@H](CC(N)=O)C(=O)N[C@H](C(=O)N[C@@H](CC(C)C)C(=O)N[C@@H](CO)C(=O)N[C@@H](CO)C(=O)NCC(=O)N[C@@H](CCC(N)=O)C(=O)N[C@@H](CC(C)C)C(=O)N[C@@H](CC(C)C)C(=O)N[C@@H](C)C(=O)N[C@@H](CC(=O)O)C(=O)N[C@@H](CCCCN)C(=O)N[C@@H](Cc1c[nH]c2ccccc12)C(=O)N[C@@H](Cc1c[nH]c2ccccc12)C(=O)N[C@@H](C)C(=O)N[C@@H](Cc1c[nH]c2ccccc12)C(=O)N[C@@H](Cc1c[nH]c2ccccc12)C(=O)N[C@@H](Cc1ccc(O)cc1)C(=O)N[C@@H](CC(N)=O)C(=O)N[C@@H](Cc1c[nH]c2ccccc12)C(=O)N[C@@H](Cc1c[nH]c2ccccc12)C(N)=O)C(C)C [PEP27-5] (H-MWKWFHNVLSSGQLLADKWWAWWYNWW-NH2)
Minimal inhibitory concentration (B. subtilis KCTC1998): >64 µM
Minimal inhibitory concentration (L. monocytogens KCTC3710): >64 µM
Minimal inhibitory concentration (E. coli ATCC25922): >64 µM
Minimal inhibitory concentration (E. coli ATCC27325): >64 µM
Minimal inhibitory concentration (E. coli CCARM1229): >64 µM
Minimal inhibitory concentration (E. coli CCARM1238): >64 µM
Minimal inhibitory concentration (P. aeruginosa 4007): >64 µM
Minimal inhibitory concentration (P. aeruginosa 4891): >64 µM
Minimal inhibitory concentration (P. aeruginosa ATCC15692): >64 µM
Minimal inhibitory concentration (P. aeruginosa ATCC27853): >64 µM
Minimal inhibitory concentration (S. aureus ATCC25923): >64 µM
Minimal inhibitory concentration (S. aureus ATCC29213): >64 µM
Minimal inhibitory concentration (S. aureus CCARM3089): >64 µM
Minimal inhibitory concentration (S. aureus CCARM3090): >64 µM
Minimal inhibitory concentration (S. aureus CCARM3518): >64 µM
Minimal inhibitory concentration (S. aureus MW2): >64 µM
Minimal inhibitory concentration (S. aureus USA300): >64 µM
Minimal inhibitory concentration [1]: >64 µM
Minimal inhibitory concentration [2]: >64 µM
Minimal inhibitory concentration (Sa. typhimurium KCTC1926): >64 µM
Erythrocyte destruction ability ([3]; Peptide concentration 3.13 μM): 0%
Erythrocyte destruction ability ([3]; Peptide concentration 6.25 μM): 0%
Erythrocyte destruction ability ([3]; Peptide concentration 12.5 μM): 0%
Erythrocyte destruction ability ([3]; Peptide concentration 25 μM): 0%
Erythrocyte destruction ability ([3]; Peptide concentration 50 μM): 2.34%
Erythrocyte destruction ability [3, 5]: 3.25%
viability at 24 h, 100 µM (MTT cytotoxicity): 100%

CSCC[C@H](N)C(=O)N[C@@H](CCCNC(=N)N)C(=O)N[C@@H](CCCCN)C(=O)N[C@@H](CCC(=O)O)C(=O)N[C@@H](Cc1ccccc1)C(=O)N[C@@H](Cc1c[nH]cn1)C(=O)N[C@@H](CC(N)=O)C(=O)N[C@H](C(=O)N[C@@H](CC(C)C)C(=O)N[C@@H](CO)C(=O)N[C@@H](CO)C(=O)NCC(=O)N[C@@H](CCC(N)=O)C(=O)N[C@@H](CC(C)C)C(=O)N[C@@H](CC(C)C)C(=O)N[C@@H](C)C(=O)N[C@@H](CC(=O)O)C(=O)N[C@@H](CCCCN)C(=O)N[C@@H](CCCNC(=N)N)C(=O)N1CCC[C@H]1C(=O)N[C@@H](C)C(=O)N[C@@H](CCCNC(=N)N)C(=O)N[C@@H](CC(=O)O)C(=O)N[C@@H](Cc1ccc(O)cc1)C(=O)N[C@@H](CC(N)=O)C(=O)N[C@@H](CCCNC(=N)N)C(=O)N[C@@H](CCCCN)C(N)=O)C(C)C [PEP27] (H-MRKEFHNVLSSGQLLADKRPARDYNRK-NH2; N-terminus assumed)
Erythrocyte destruction ability ([3]; Peptide concentration 3.13 μM): 0%
Erythrocyte destruction ability ([3]; Peptide concentration 6.25 μM): 1.26%
Erythrocyte destruction ability ([3]; Peptide concentration 12.5 μM): 1.79%
Erythrocyte destruction ability ([3]; Peptide concentration 25 μM): 2.76%
Erythrocyte destruction ability ([3]; Peptide concentration 50 μM): 3.64%
Erythrocyte destruction ability [3, 5]: 3.58%
viability at 24 h, 100 µM (MTT cytotoxicity): 100%
calcein leakage [4]: 12%
bacterial membrane destruction (E. coli; E. coli, flow cytometry): without destruction of the E. coli membrane
PI-positive E. coli cells (membrane destruction ability) (E. coli; at MIC, 37° C., 1 hour): 19.9%
binding to DNA (gel electrophoresis) (plasmid DNA (pRSETB)): bound to DNA
